Test results as given in patent US9132084B2, “Methods for administration and formulations for the treatment of regional adipose tissue” (NEOTHETICS, INC., priority 2009, dated 2015).

Assay: Plasma pharmacokinetics following a single intravenous and subcutaneous injection of a combination of formoterol and budesonide
Conditions: for AUC(0-inf): AUCinf; for bioavailability: F (bioavailability); for concentration at 0.0333 hr: female 2-0623, 0.0333 hr; for concentration at 0.0833 hr: female 2-0623, 0.0833 hr; for concentration at 0.167 hr: female 2-0623, 0.167 hr; for concentration at 0.333 hr: female 2-0623, 0.333 hr; for concentration at 0.5 hr: female 2-0623, 0.500 hr; for concentration at 0.75 hr: female 2-0623, 0.750 hr; for concentration at 1 hr: female 2-0623, 1.00 hr; for concentration at 2 hr: female 2-0623, 2.00 hr; for concentration at 4 hr: female 2-0623, 4.00 hr; for concentration at 8 hr: female 2-0623, 8.00 hr
Protocol: Formoterol fumarate dehydrate and budesonide were formulated in 2% PEG-400 in saline. 1 male and 1 female non-naive Gottingen minipigs (8 to 12 kg upon receipt per protocol) were utilized. The animals were housed individually.
Each minipig received a single IV injection of the combined formoterol and budesonide formulation followed by testing of the SC doses. Each dose was separated by at least a 3-day washout period. The IV dose was administered by slow bolus (1 minute; 0.017 hr) into the marginal ear vein, whereas the first SC dose was administered as a bolus injection along the back (neck-region) where there was a longitudinal fat depot. The second SC dose was distributed in 5 separate proximal SC injections separated by approximately 2 cm. Blood samples (approximately 4 mL) were collected via the branchiocephalic plexus at pre-dose and at 2, 5, 10, 20, 30 and 45 minutes, and at 1, 2, 4, 8 and 24 hr post-dose. Blood samples were placed in tubes containing K2-EDTA as the anticoagulant. Samples were processed to plasma by centrifugation and stored frozen at approximately −70° C. (+/−15° C.) until shipment for analysis.
Plasma samples were analyzed for formoterol and budesonide using a qualified liquid chromatography/mass spectrometry/mass mass spectrometry (LC/MS/MS) method. The lower limit of quantitation (LLOQ) was 1.00 pg/mL for formoterol and 25.0 pg/mL for budesonide.
Non-compartmental pharmacokinetic parameters were calculated using WinNonlin 5.2 software, NCA model 202, IV infusion input for the IV data and NCA model 200, extravascular input for the SC data. Individual plasma concentrations for each animal were used in the calculation of pharmacokinetic parameters. Nominal collection times and doses were used in the calculations. The area under the plasma concentration-time curve (AUC) was calculated using linear trapezoidal approximation (linear/log interpolation). Concentration values below the assay limit of quantitation were set to zero for calculations. The maximum plasma concentration (Cmax) and the time of its occurrence (Tmax) were verified by inspection. The half-life (t1/2) values were calculated using the last 3 plasma concentrations with nonzero values, if data permitted.

[1] = female, Gottingen, minipig, in vivo, formoterol 0.4 μg/kg SC1 single site, combination, female 2-0623
[2] = female, Gottingen, minipig, in vivo, formoterol 0.4 μg/kg SC5 (5 sites), combination, female 2-0623
[3] = female, Gottingen, minipig, in vivo, Plasma concentration of formoterol, SC1 0.4 μg/kg, combination
[4] = female, Gottingen, minipig, in vivo, Plasma concentration of formoterol, SC5 0.4 μg/kg, combination
[5] = female, Gottingen, minipig, in vivo, iv, 0.4 ug/kg
[6] = female, Gottingen, minipig, in vivo, iv, 0.4 ug/kg, formoterol 0.4 μg/kg IV in combination with budesonide, female 2-0623
[7] = female, Gottingen, minipig, in vivo, iv, Plasma concentration of formoterol, IV 0.4 μg/kg, combination

COc1ccc(CC(C)NCC(O)c2ccc(O)c(NC=O)c2)cc1 (centres unmarked) [Formoterol, formoterol]
Plasma concentration of formoterol (IV 0.4 μg/kg, combination, female 2-0623, 24.0 hr): <LLOQ (LLOQ = 1.00 pg/mL for formoterol)
Plasma concentration of formoterol (IV 0.4 μg/kg, combination, male 1-0771, 0 hr): <LLOQ (LLOQ = 1.00 pg/mL for formoterol)
Plasma concentration of formoterol (IV 0.4 μg/kg, combination, male 1-0771, 24.0 hr): <LLOQ (LLOQ = 1.00 pg/mL for formoterol)
Plasma concentration of formoterol (SC1 0.4 μg/kg, combination, female 2-0623, 0 hr): <LLOQ (LLOQ = 1.00 pg/mL for formoterol)
Plasma concentration of formoterol (SC1 0.4 μg/kg, combination, female 2-0623, 24.0 hr): <LLOQ (LLOQ = 1.00 pg/mL for formoterol)
Plasma concentration of formoterol (SC5 0.4 μg/kg, combination, female 2-0623, 0 hr): <LLOQ (LLOQ = 1.00 pg/mL for formoterol)
Plasma concentration of formoterol (SC5 0.4 μg/kg, combination, male 1-0771, 0 hr): <LLOQ (LLOQ = 1.00 pg/mL for formoterol)
AUC(0-inf) [1]: 0.378 ng·h/mL
AUC(0-inf) [2]: 0.577 ng·h/mL
Cmax [1]: 0.284 ng/mL
Cmax [2]: 0.256 ng/mL
bioavailability [1]: 115%
bioavailability [2]: 176%
concentration at 0.0333 hr [3]: 0.169 ng/mL
concentration at 0.0833 hr [3]: 0.284 ng/mL
concentration at 0.167 hr [3]: 0.237 ng/mL
concentration at 0.333 hr [3]: 0.156 ng/mL
concentration at 0.5 hr [3]: 0.127 ng/mL
concentration at 0.75 hr [3]: 0.0789 ng/mL
concentration at 1 hr [3]: 0.0678 ng/mL
concentration at 2 hr [3]: 0.0512 ng/mL
concentration at 4 hr [3]: 0.0285 ng/mL
concentration at 8 hr [3]: 0.00858 ng/mL
concentration at 0.0333 hr [4]: 0.0946 ng/mL
concentration at 0.0833 hr [4]: 0.256 ng/mL
concentration at 0.167 hr [4]: 0.178 ng/mL
concentration at 0.333 hr [4]: 0.131 ng/mL
concentration at 0.5 hr [4]: 0.1 ng/mL
concentration at 0.75 hr [4]: 0.0826 ng/mL
concentration at 1 hr [4]: 0.0628 ng/mL
concentration at 2 hr [4]: 0.0444 ng/mL
concentration at 4 hr [4]: 0.026 ng/mL
concentration at 8 hr [4]: 0.0103 ng/mL
concentration at 24 hr (female, Gottingen, minipig, in vivo, Plasma concentration of formoterol, SC5 0.4 μg/kg, combination, female 2-0623, 24.0 hr): 0.00695 ng/mL
Tmax [1]: 5 min
Tmax [2]: 5 min
Vd [5]: 3.17 L/kg
clearance [5]: 20.3 mL/min/kg
AUC(0-inf) [6]: 0.328 ng·h/mL
Cmax [6]: 0.9 ng/mL
Tmax [6]: 2 min
half-life (female, Gottingen, minipig, in vivo, iv, 0.4 ug/kg, t1/2, formoterol 0.4 μg/kg IV in combination with budesonide, female 2-0623): 2.86 h
concentration at 0 hr (female, Gottingen, minipig, in vivo, iv, Plasma concentration of formoterol, IV 0.4 μg/kg, combination, female 2-0623, 0 hr): 0.00353 ng/mL
concentration at 0.0333 hr [7]: 0.9 ng/mL
concentration at 0.0833 hr [7]: 0.204 ng/mL
concentration at 0.167 hr [7]: 0.11 ng/mL
concentration at 0.333 hr [7]: 0.0735 ng/mL
concentration at 0.5 hr [7]: 0.0984 ng/mL
concentration at 0.75 hr [7]: 0.0614 ng/mL
concentration at 1 hr [7]: 0.0454 ng/mL
concentration at 2 hr [7]: 0.0313 ng/mL
concentration at 4 hr [7]: 0.0184 ng/mL
concentration at 8 hr [7]: 0.00726 ng/mL
half-life (female, Gottingen, minipig, in vivo, t1/2, formoterol 0.4 μg/kg SC1 single site, combination, female 2-0623): 2.33 h
half-life (female, Gottingen, minipig, in vivo, t1/2, formoterol 0.4 μg/kg SC5 (5 sites), combination, female 2-0623): 12.8 h
tlast (formoterol 0.4 μg/kg IV in combination with budesonide, female 2-0623): 8.00 h
